{
  "source": "patent US10258642B2",
  "about": "“Dextran sulfate for use in mobilization of cells” (TX MEDIC AB, priority 2013, dated 2019)",
  "origin": "cited, not measured here",
  "key": {"CFU-GM": {"test_system": "CFU-GM", "settings": "cited from earlier work"}, "[1]": {"test_system": "colony forming cells (CFCs)", "settings": "monkeys (Sweeney 2000, 2002); cited from earlier work"}, "[2]": {"test_system": "colony forming cells (CFCs)", "settings": "mice (Sweeney 2000, 2002); cited from earlier work"}},
  "note": "Like-named read-outs stand apart in the source and are kept apart here.",
  "data": [
    {"substance": "dextran sulfate [dextran sulfate 10 kDa]", "values": [
      {"measurement": "CFU-GM level", "setting": "CFU-GM; colonies with >50 cells, G-CSF 10 μg/kg daily for five days and/or dextran sulfate 15 mg/kg once on day 5 (Han 1998)", "result": "12.9±1.6", "unit": "colonies"},
      {"measurement": "time of peaks in peripheral WBC, MNC and CFU-GM", "setting": "CFU-GM; i.v. injection of 15-30 mg, mice (Han 1998)", "result": "2 to 5", "unit": "h"},
      {"measurement": "time of CFC mobilization after dextran sulfate administration", "setting": "[1]", "result": 6, "unit": "h"},
      {"measurement": "time of CFC mobilization after dextran sulfate administration", "setting": "[2]", "result": 3, "unit": "h"}
    ]}
  ]
}
